Results: ChEMBL document CHEMBL5725380, “Substituted biaryl compound” (2017)
pKi: −log10 of the molar value.

What follows are molecules tested against Prostaglandin E2 receptor EP2 subtype (Homo sapiens, UniProt P43116) (assay: Binding Assay: Measurement of EP2 receptor binding action was performed in accordance with the method of Abramovitz et al. (Biochimica et Biophysica Acta, 1483, 285 (2000)). A test compound dissolved in dimethyl sulfoxide (final concentration: 1.0 (V/V) %) and [3H]prostaglandin E2 (NET-428, manufactured by PerkinElmer) (final concentration: 10 nM) were added to a buffer solution (10 mM MES-KOH (pH 6.0), 10 mM MgCl2, 1 mM EDTA) in which 10 μg of a membrane fraction of HEK293 cells expressing human EP2 receptor (ES-562-M, manufactured by Euroscreen) was suspended, and then incubated at 30° C. for 60 minutes. The membrane fraction was recovered on glass fiber filter paper (GF/B, manufactured by Whatman) using a cell harvester (M30R, manufactured by Brandel), and after washing with a buffer solution (10 mM MES-KOH (pH 6.0), 10 mM MgCl2), radioactivity was measured with a liquid scintillation analyzer (2000CA, manufactured by Packard).).
Prostaglandin E2 receptor EP2 subtype, sequence (P43116 whole entry): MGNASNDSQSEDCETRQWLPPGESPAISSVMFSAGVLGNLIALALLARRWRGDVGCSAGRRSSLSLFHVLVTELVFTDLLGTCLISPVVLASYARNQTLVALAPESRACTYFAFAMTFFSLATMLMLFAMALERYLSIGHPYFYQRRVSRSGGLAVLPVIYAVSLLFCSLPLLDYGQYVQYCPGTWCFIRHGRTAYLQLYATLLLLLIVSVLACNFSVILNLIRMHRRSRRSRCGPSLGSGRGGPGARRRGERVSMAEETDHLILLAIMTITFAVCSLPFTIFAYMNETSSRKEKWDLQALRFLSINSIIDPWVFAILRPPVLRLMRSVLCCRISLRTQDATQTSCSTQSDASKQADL
Assay type: cell membranes
In the case of `Cc1cnc(-c2ccc(CN(Cc3cccc(NCC(=O)O)n3)S(=O)(=O)c3ccccn3)cc2)s1`, the pKi was < 8.00. `Cc1cccc(-c2ccc(CN(Cc3cccc(NCC(=O)O)n3)S(=O)(=O)c3ccccn3)cc2)c1` showed a pKi of 8.66. Molecule `C=CCc1cccc(-c2ccc(CN(Cc3cccc(NCC(=O)O)n3)S(=O)(=O)c3ccccn3)cc2)c1` has a pKi of 8.77. In the case of `O=C(O)CNc1cccc(CN(Cc2ccc(-c3ccc(Cl)cc3)cc2)S(=O)(=O)c2cccnc2)n1`, the pKi was < 8.00. `CC#Cc1ccccc1-c1ccc(CN(Cc2cccc(NCC(=O)O)n2)S(=O)(=O)c2ccccn2)cc1` showed a pKi of 9.12. For `CCOc1ccc(-c2ccc(CN(Cc3cccc(NCC(=O)O)n3)S(=O)(=O)c3ccccn3)cc2)cc1`, the pKi was < 8.00. Molecule `CC#Cc1cccc(-c2ccc(CN(Cc3cccc(NCC(=O)O)n3)S(=O)(=O)c3cccc(F)c3)cc2)c1` has a pKi of 8.85. With `COc1cccc(-c2ccc(CN(Cc3cccc(NCC(=O)O)n3)S(=O)(=O)c3ccccn3)cc2)c1` the pKi was 8.92. `CCc1cccc(-c2ccc(CN(Cc3cccc(NCC(=O)O)n3)S(=O)(=O)c3ccccn3)cc2)c1` was tested, and the pKi was 8.85. With `CC#Cc1ccc(-c2ccc(CN(Cc3cccc(NCC(=O)O)n3)S(=O)(=O)c3ccccn3)cc2)cc1` the pKi was 8.17. With `CCOc1ccccc1-c1ccc(CN(Cc2cccc(NCC(=O)O)n2)S(=O)(=O)c2ccccn2)cc1` the pKi was 8.59. `CCCc1cccc(-c2ccc(CN(Cc3cccc(NCC(=O)O)n3)S(=O)(=O)c3ccccn3)cc2)c1` was tested, and the pKi was 8.96.
